From paper PMC11640419, “New Synthetic Analogs of Natural 5Z,9Z-Dienoic Acids—Hybrid Molecules Based on Oleanolic Acid: Synthesis and Study of Antitumor Activity” (Cancers, 2024)

Tests used:
[1] = Cytotoxicity assay (7-AAD, flow cytometry); format: cell-based, human; conditions: human, Jurkat cells; Jurkat, 24 h incubation
Protocol: The human cell lines Jurkat, K562, U937, and HEK293 were obtained from the European Collection of Authenticated Cell Cultures (ECACC) and subsequently cultured in accordance with established standard protocols and sterile techniques. […] Subsequently, the cells were seeded into 24-well plates at a density of 5 × 10^4 cells per well and incubated for 12 h (Jurkat, K562, U937) and 24 h (HEK293).
The viability of the cells was evaluated through the utilization of the 7-AAD (7-aminoactinomycin D) dye (eBioscience™, San Diego, CA, USA). Following a 24 h incubation period with the test substances, the cells were washed with phosphate-salt buffer (PBS) and centrifuged at 400× g for five minutes. […] Subsequently, all cell samples were subjected to analysis on a NovoCyte Penteon flow cytometer (Agilent, Santa Clara, CA, USA).

[2] = Cytotoxicity assay (7-AAD, flow cytometry); format: cell-based, human; conditions: human
Protocol: The human cell lines Jurkat, K562, U937, and HEK293 were obtained from the European Collection of Authenticated Cell Cultures (ECACC) and subsequently cultured in accordance with established standard protocols and sterile techniques. The cells were maintained in RPMI 1640 (for Jurkat, K562, and U937) or DMEM (for HEK293) medium, both of which were supplemented with […], 10% FBS (Sigma, Kanagawa, Japan), and 100 units/mL penicillin-streptomycin (Sigma). Subsequently, the cells were seeded into 24-well plates at a density of 5 × 10^4 cells per well and incubated for 12 h (Jurkat, K562, U937) and 24 h (HEK293).
The viability of the cells was evaluated through the utilization of the 7-AAD (7-aminoactinomycin D) dye (eBioscience™, San Diego, CA, USA). Following a 24 h incubation period with the test substances, the cells were washed with phosphate-salt buffer (PBS) and centrifuged at 400× g for five minutes. The precipitate was resuspended in 200 μL of flow cytometry buffer (PBS without calcium and magnesium, 2.5% FBS) and incubated with a 1 mM 7-AAD dye solution for 15 min in the dark at room temperature. Subsequently, all cell samples were subjected to analysis on a NovoCyte Penteon flow cytometer (Agilent, Santa Clara, CA, USA).

[3] = HEK293 cells, HEK293, 24 h incubation
[4] = K562 cells, K562, 24 h incubation
[5] = U937 cells, U937, 24 h incubation

Compound	CC50 at 24 h [1]	CC50 at 24 h [2, 3]	CC50 at 24 h [2, 4]	CC50 at 24 h [2, 5]
CC(=O)O[C@H]1CC[C@@]2(C)C(CC[C@]3(C)C2CC=C2C4CC(C)(C)CC[C@]4(C(=O)NC(C)C45CC6CC(CC(C6)C4)C5)CC[C@]23C)C1(C)C (stereo partly shown) [compound 7d]	120 ± 11.8 µM	342 ± 33.8 µM	99.9 ± 9.38 µM	97.1 ± 8.96 µM
CC1(C)CC[C@]2(C(=O)Nc3cccc4cccnc34)CC[C@]3(C)C(=CCC4[C@@]5(C)CC[C@H](O)C(C)(C)C5CC[C@]43C)C2C1 (stereo partly shown) [compound 8i]	165 ± 14.3 µM	515 ± 40.3 µM	155 ± 12.9 µM	142 ± 12.5 µM
Cn1nccc1NC(=O)[C@]12CCC(C)(C)CC1C1=CCC3[C@@]4(C)CC[C@H](O)C(C)(C)C4CC[C@@]3(C)[C@]1(C)CC2 (stereo partly shown) [compound 8a]	23.8 ± 2.84 µM	110 ± 10.3 µM	20.4 ± 2.11 µM	19.6 ± 1.96 µM
CC1(C)CC[C@]2(C(=O)Nc3nccs3)CC[C@]3(C)C(=CCC4[C@@]5(C)CC[C@H](OC(=O)CCC/C=C\CC/C=C\CCCC(=O)O)C(C)(C)C5CC[C@]43C)C2C1 (stereo partly shown) [compound 9f]	96.7 ± 9.18 µM	205 ± 19.7 µM	84.4 ± 8.47 µM	79.7 ± 6.78 µM
CC1(C)CC[C@]2(C(=O)NCc3cccs3)CC[C@]3(C)C(=CCC4[C@@]5(C)CC[C@H](O)C(C)(C)C5CC[C@]43C)C2C1 (stereo partly shown) [compound 8e]	165 ± 14.2 µM	593 ± 53.9 µM	149 ± 12.6 µM	122 ± 12 µM
Cc1cc(NC(=O)[C@]23CCC(C)(C)CC2C2=CCC4[C@@]5(C)CC[C@H](O)C(C)(C)C5CC[C@@]4(C)[C@]2(C)CC3)no1 (stereo partly shown) [compound 8h]	179 ± 17.1 µM	598 ± 59 µM	161 ± 16.4 µM	155 ± 15.2 µM
CC1(C)CC[C@]2(C(=O)Nc3ccncc3)CC[C@]3(C)C(=CCC4[C@@]5(C)CC[C@H](OC(=O)CCC/C=C\CC/C=C\CCCC(=O)O)C(C)(C)C5CC[C@]43C)C2C1 (stereo partly shown) [compound 9g]	80.4 ± 7.86 µM	223 ± 21.8 µM	72.1 ± 6.39 µM	61.2 ± 6.48 µM
CC(=O)O[C@H]1CC[C@@]2(C)C(CC[C@]3(C)C2CC=C2C4CC(C)(C)CC[C@]4(C(=O)NC45CC6CC(CC(C6)C4)C5)CC[C@]23C)C1(C)C (stereo partly shown) [compound 7c]	121 ± 11.8 µM	366 ± 34.7 µM	104 ± 10.6 µM	98.9 ± 9.54 µM
CC(=O)O[C@H]1CC[C@@]2(C)C(CC[C@]3(C)C2CC=C2C4CC(C)(C)CC[C@]4(C(=O)NCc4cccs4)CC[C@]23C)C1(C)C (stereo partly shown) [compound 7e]	131 ± 12.5 µM	438 ± 42.6 µM	125 ± 11.9 µM	108 ± 11 µM
CC1(C)CC[C@]2(C(=O)O)CC[C@]3(C)C(=CC[C@@H]4[C@@]5(C)CC[C@H](O)C(C)(C)[C@@H]5CC[C@]43C)[C@@H]2C1 [Oleanoic acid, Oleanolic acid]	199 ± 18.4 µM	497 ± 39.8 µM	171 ± 16.5 µM	144 ± 14.3 µM
Cc1c(NC(=O)[C@]23CCC(C)(C)CC2C2=CCC4[C@@]5(C)CC[C@H](OC(=O)CCC/C=C\CC/C=C\CCCC(=O)O)C(C)(C)C5CC[C@@]4(C)[C@]2(C)CC3)c(=O)n(-c2ccccc2)n1C (stereo partly shown) [compound 9b]	6.11 ± 0.56 µM	21.4 ± 2.33 µM	5.76 ± 0.69 µM	4.86 ± 0.42 µM
CC1(C)CC[C@]2(C(=O)Nc3ccncc3)CC[C@]3(C)C(=CCC4[C@@]5(C)CC[C@H](O)C(C)(C)C5CC[C@]43C)C2C1 (stereo partly shown) [compound 8g]	160 ± 14.3 µM	443 ± 40.3 µM	137 ± 12.4 µM	135 ± 12.8 µM
CC1(C)CC[C@]2(C(=O)Nc3cccc4cccnc34)CC[C@]3(C)C(=CCC4[C@@]5(C)CC[C@H](OC(=O)CCC/C=C\CC/C=C\CCCC(=O)O)C(C)(C)C5CC[C@]43C)C2C1 (stereo partly shown) [compound 9i]	84.7 ± 8.21 µM	262 ± 22.7 µM	77.3 ± 6.85 µM	62.9 ± 5.91 µM
CC1(C)CC[C@]2(C(=O)NCc3cccs3)CC[C@]3(C)C(=CCC4[C@@]5(C)CC[C@H](OC(=O)CCC/C=C\CC/C=C\CCCC(=O)O)C(C)(C)C5CC[C@]43C)C2C1 (stereo partly shown) [compound 9e]	76.3 ± 7.25 µM	195 ± 17.9 µM	69.8 ± 6.99 µM	56.4 ± 5.11 µM
CC(=O)O[C@H]1CC[C@@]2(C)C(CC[C@]3(C)C2CC=C2C4CC(C)(C)CC[C@]4(C(=O)Nc4ccncc4)CC[C@]23C)C1(C)C (stereo partly shown) [compound 7g]	143 ± 14.3 µM	430 ± 41.9 µM	125 ± 11.9 µM	112 ± 12.3 µM
CC(=O)O[C@H]1CC[C@@]2(C)C(CC[C@]3(C)C2CC=C2C4CC(C)(C)CC[C@]4(C(=O)Nc4c(C)n(C)n(-c5ccccc5)c4=O)CC[C@]23C)C1(C)C (stereo partly shown) [compound 7b]	86.5 ± 8.46 µM	218 ± 20.7 µM	81.3 ± 7.98 µM	72.2 ± 7.34 µM
CC(=O)O[C@H]1CC[C@@]2(C)C(CC[C@]3(C)C2CC=C2C4CC(C)(C)CC[C@]4(C(=O)Nc4cccc5cccnc45)CC[C@]23C)C1(C)C (stereo partly shown) [compound 7i]	153 ± 13.9 µM	456 ± 42.7 µM	133 ± 12.9 µM	122 ± 12.8 µM
CC(NC(=O)[C@]12CCC(C)(C)CC1C1=CCC3[C@@]4(C)CC[C@H](O)C(C)(C)C4CC[C@@]3(C)[C@]1(C)CC2)C12CC3CC(CC(C3)C1)C2 (stereo partly shown) [compound 8d]	110 ± 11.6 µM	398 ± 37.6 µM	93.8 ± 8.91 µM	58.1 ± 6.26 µM
CC1(C)CC[C@]2(C(=O)NC34CC5CC(CC(C5)C3)C4)CC[C@]3(C)C(=CCC4[C@@]5(C)CC[C@H](O)C(C)(C)C5CC[C@]43C)C2C1 (stereo partly shown) [compound 8c]	115 ± 12.1 µM	414 ± 39.5 µM	94.7 ± 8.68 µM	57.6 ± 6.49 µM
CC(=O)O[C@H]1CC[C@@]2(C)C(CC[C@]3(C)C2CC=C2C4CC(C)(C)CC[C@]4(C(=O)Nc4nccs4)CC[C@]23C)C1(C)C (stereo partly shown) [compound 7f]	152 ± 14.1 µM	494 ± 42.2 µM	144 ± 12.8 µM	132 ± 12.9 µM
Cc1cc(NC(=O)[C@]23CCC(C)(C)CC2C2=CCC4[C@@]5(C)CC[C@H](OC(=O)CCC/C=C\CC/C=C\CCCC(=O)O)C(C)(C)C5CC[C@@]4(C)[C@]2(C)CC3)no1 (stereo partly shown) [compound 9h]	91.2 ± 8.34 µM	213 ± 18.3 µM	81.5 ± 7.62 µM	72.3 ± 6.85 µM
CC1(C)CC[C@]2(C(=O)Nc3nccs3)CC[C@]3(C)C(=CCC4[C@@]5(C)CC[C@H](O)C(C)(C)C5CC[C@]43C)C2C1 (stereo partly shown) [compound 8f]	189 ± 17.4 µM	611 ± 57.7 µM	168 ± 17.1 µM	157 ± 15 µM
CC1(C)CC[C@]2(C(=O)NC34CC5CC(CC(C5)C3)C4)CC[C@]3(C)C(=CCC4[C@@]5(C)CC[C@H](OC(=O)CCC/C=C\CC/C=C\CCCC(=O)O)C(C)(C)C5CC[C@]43C)C2C1 (stereo partly shown) [compound 9c]	54.4 ± 5.88 µM	167 ± 15.5 µM	49.2 ± 5.01 µM	29.4 ± 3.18 µM
CC(=O)O[C@H]1CC[C@@]2(C)C(CC[C@]3(C)C2CC=C2C4CC(C)(C)CC[C@]4(C(=O)Nc4cc(C)on4)CC[C@]23C)C1(C)C (stereo partly shown) [compound 7h]	146 ± 14 µM	489 ± 44.8 µM	139 ± 12.9 µM	129 ± 11.7 µM
Cc1c(NC(=O)[C@]23CCC(C)(C)CC2C2=CCC4[C@@]5(C)CC[C@H](O)C(C)(C)C5CC[C@@]4(C)[C@]2(C)CC3)c(=O)n(-c2ccccc2)n1C (stereo partly shown) [compound 8b]	98.7 ± 9.39 µM	267 ± 22.7 µM	94.8 ± 9.57 µM	85.4 ± 8.64 µM
